Test results as given in patent US6716411B2, “Method for finding nucleotide synthesis inhibitors having fewer side effects” (Aventis Pharma Deustschland GmbH, priority 1999, dated 2004).
Where “and” joins values, the source holds several entries; their conditions need not be identical. Equal values may be shown once. Read-outs that look alike come from different tables or passages of the source. Marks after values point to notes of the source that are not given here.

What was measured:
[1] = Half-life in the blood plasma of humans; type: in vivo; conditions: human
Method: The measurement is determined by calculating the half-life of a nucleotide synthesis inhibitor in the blood of a mammal, which is relevant for pharmacokinetic ratios in humans, or in humans in phase I clinical trial development, and comparing it with that of a known nucleotide synthesis inhibitor. The term “half-life” is understood as meaning the time in which the concentration of the nucleotide synthesis inhibitor in the blood plasma is halved. This invention for finding nucleotide synthesis inhibitors which have lower side effects therefore includes

[2] = Blood plasma level of compound 1 in the rat with and without colestyramine (HPLC-MS/MS); type: in vivo; conditions: for half-life: male, Lewis, rat, plasma
Method: A selective HPLC-MS/MS method was used for the detection of compound 1. The quantitative determination of compound 1 from the blood plasma was carried out as follows:
A solution of an internal standard, then 0.1 M NaOH solution and 1 ml of diethyl ether were added. The mixture was vigorously shaken and the organic phase was discarded. 0.5 N HCl solution was added to the aqueous phase, and the analyte and the internal standard were extracted with 1 ml of diethyl ether. The organic phase was evaporated and taken up in a 1:1 mixture of acetonitrile and water. 10 μl of this solution was injected into an HPLC unit.
The HPLC unit contained a Lichrospher C-18HD column. Using a flow rate of 1 ml/min, the analyte and the internal standard were eluted using the eluent combination acetonitrile+(ammonium acetate solution [10 mmolar]), 67+33, and then selectively detected by mass spectroscopy (LC-MS/MS analysis). During the analysis of the blood plasma samples, calibration samples were taken.
In order to test foreign substances in identical metabolic situations, compound 1 was given only to animals with adjuvant arthritis. The arthritis was induced according to Example 1. The animal weight was on average 210 g. Each group consisted of 6 male Lewis rats. Blood samples were obtained from the tail.
The influence on the blood plasma level of compound 1 was investigated by means of colestyramine. […] During combination therapy with colestyramine, 1000 mg/kg of colestyramine was administered 4 hours after administration of the compound 1. Control animals received 1% CMC at the appropriate times without any active compound. The influence on the pharmacokinetics of compound 1 by colestyramine was investigated both after single administration and after chronic administration of compound 1 with or without colestyramine. Blood samples were obtained 2, 4, 6, 8, 24 and 48 hours after the last administration of compound 1.
The term “area under the curve” (AUC) is understood as meaning the area under the concentration level of a pharmaceutical substance plotted as a function of time. The AUC reflects the extent to which an organism is exposed to a substance. The term “chronic administration” is understood as meaning an administration of the compound 1 over a period of time which at least leads to constant blood levels of the compound 1. These constant blood levels, referred to as the steady state, are achieved after approximately 4 to 5 half-lives of regular taking.

Lewis rats = test: Tolerability of constant (mini-infusion pump) versus pulse-like (oral) blood levels (Example 5); type: in vivo, rat
Method: (§1) In order to attain constant blood levels, a mini-infusion pump was subcutaneously implanted into experimental animals. The mini-infusion pumps contained 2 ml of a 15% strength ethanolic solution of compound 1, which was continuously released over 28 days. Doses of 2.5, 5, 10 and 25 mg/kg/day were employed. For comparison, animals which received the same daily doses of the compound 1, but administered orally, were implanted with mini-infusion pumps; these, however, were filled with only the vehicle (15% ethanol in water). A 1% strength CMC was additionally administered orally to animals which received the compound 1 via mini-infusion pumps. The survival of the animals was taken as a course parameter. Additionally, blood was taken on day 5 and day 27 in order to determine the blood levels of compound 1. Blood was taken from animals 4 hours after oral administration of compound 1. The group was comprised of 6 male Lewis rats having a body weight of approximately 210 g. Corresponding to the preceding experiments, adjuvant arthritis was induced in the animals on day 5.
(§2) For the attainment of constant blood levels of compound 1, the animals were implanted subcutaneously with a mini-infusion pump which supplied compound 1 to the animals continuously for 28 days. By means of this pump, constant blood levels of compound 1 were attained. Thus long half-lives of compound 1, such as are observed in humans, were simulated.
(§3) For the comparison group, animals were treated with the identical daily dose of compound 1, but received the substance orally rather than by mini-infusion pump.
(§4) In this experiment, the tolerability of the compound 1 with a short half-life (compound 1 orally administered) was compared with the tolerability of the compound 1 with a long half-life (compound 1 by pump with a constant infinite half-life). The doses employed were 2.5 mg/kg/day, 5 mg/kg/day, 10 mg/kg/day and 25 mg/kg/day. The number of animals surviving the treatment was used as a measure of the tolerability. The tolerability was moreover compared with respect to the observed blood levels.

[3] = as above; type: in vivo, rat; conditions: male, Lewis, rat, plasma, subcutaneous, read-out: Compound 1 blood plasma level (day 27)
Method: as §1, §2, §3, §4

[4] = chronic administration, 2.5 mg/kg of compound 1
[5] = chronic administration, 2.5 mg/kg of compound 1 and 1000 mg/kg of colestyramine 4 hours later
[6] = single administration, 2.5 mg/kg of compound 1
[7] = single administration, 2.5 mg/kg of compound 1 and 1000 mg/kg of colestyramine 4 hours later

C/C(O)=C(\C#N)C(=O)Nc1ccc(C(F)(F)F)cc1 [compound 1, N-(4-trifluoromethylphenyl)-2-cyano-3-hydroxycrotonamide]
half-life [1]: ≤ 350 h | half-life ([1]; approximately): ~336 h | Area under the curve 0-48 hours [2, 4]: 63.58 μg/ml × hr | Maximum blood plasma level [2, 4]: 5.73 µg/mL | Area under the curve 0-48 hours [2, 5]: 37.81 μg/ml × hr | Maximum blood plasma level [2, 5]: 4.66 µg/mL | half-life ([2]; oral, 2.5 mg/kg, chronic administration, 2.5 mg/kg of compound 1): 3.45 h | half-life ([2]; oral, 2.5 mg/kg, single administration, 2.5 mg/kg of compound 1, rats with adjuvant arthritis): 3.85 h | half-life ([2]; oral, chronic administration, 2.5 mg/kg of compound 1 and 1000 mg/kg of colestyramine 4 hours later): 3.47 h | half-life ([2]; oral, single administration, 2.5 mg/kg of compound 1 and 1000 mg/kg of colestyramine 4 hours later): 3.32 h | half-life ([2]; po, 2.5 mg/kg/day, in rats, approximately, orally administered): 4 to 8 h | AUC reduced by administration of colestyramine ([2]; multiple administration): 40% | AUC reduced by administration of colestyramine ([2]; single administration): 30% | Area under the curve 0-48 hours [2, 6]: 141.69 μg/ml × hr | Maximum blood plasma level [2, 6]: 10.15 µg/mL | Area under the curve 0-48 hours [2, 7]: 99.90 μg/ml × hr | Maximum blood plasma level [2, 7]: 9.62 µg/mL | Body weight increase (Lewis rats; 2.5 mg/kg/day mini-infusion): +22% | Compound 1 blood plasma level (day 5) (Lewis rats; 2.5 mg/kg/day mini-infusion): 2.05 μg/ml ± | Compound 1 blood plasma level (day 27) (Lewis rats; 2.5 mg/kg/day mini-infusion): 2.34 μg/ml ± | Surviving animals (Lewis rats; 2.5 mg/kg/day mini-infusion): 100% | Body weight increase (Lewis rats; 2.5 mg/kg/day p.o.): +29% | Surviving animals (Lewis rats; 2.5 mg/kg/day p.o.): 100% | Body weight increase (Lewis rats; 5 mg/kg/day mini-infusion): +26% | Compound 1 blood plasma level (day 5) (Lewis rats; 5 mg/kg/day mini-infusion): 3.57 μg/ml ± | Compound 1 blood plasma level (day 27) (Lewis rats; 5 mg/kg/day mini-infusion): 4.18 μg/ml ± | Surviving animals (Lewis rats; 5 mg/kg/day mini-infusion): 100% | Body weight increase (Lewis rats; 5 mg/kg/day p.o.): +25% | Surviving animals (Lewis rats; 5 mg/kg/day p.o.): 100% | Compound 1 blood plasma level (day 5) (Lewis rats; 5 mg/kg/day p.o., 4 hours after oral administration): 14.31 µg/µg/mL | Body weight increase (Lewis rats; 10 mg/kg/day mini-infusion): +29% | Compound 1 blood plasma level (day 5) (Lewis rats; 10 mg/kg/day mini-infusion): 4.55 μg/ml ± | Compound 1 blood plasma level (day 27) (Lewis rats; 10 mg/kg/day mini-infusion): 6.72 μg/ml ± | Surviving animals (Lewis rats; 10 mg/kg/day mini-infusion): 100% | Body weight increase (Lewis rats; 10 mg/kg/day p.o.): +27% | Surviving animals (Lewis rats; 10 mg/kg/day p.o.): 100% | Compound 1 blood plasma level (day 27) (Lewis rats; 10 mg/kg/day p.o., 4 hours after oral administration): 34.35 μg/ml and 34.35 μg/ μg/ml | Surviving animals (Lewis rats; 25 mg/kg/day mini-infusion): 17% | blood plasma levels, extrapolated from the values at lower doses (Lewis rats; 25 mg/kg/day mini-infusion pump): ≤ 15000 ng/mL | Body weight increase (Lewis rats; 25 mg/kg/day mini-infusion, determined in one surviving animal only): +13%* | survival (Lewis rats; 25 mg/kg/day orally administered): all animals | Body weight increase (Lewis rats; 25 mg/kg/day p.o.): −2% | Surviving animals (Lewis rats; 25 mg/kg/day p.o.): 100% | concentration at 27 day ([3]; 2.5 mg/kg/day mini-infusion): 2340 ng/mL | concentration at 27 day ([3]; 5 mg/kg/day mini-infusion): 4180 ng/mL | concentration at 27 day ([3]; 10 mg/kg/day mini-infusion): 6720 ng/mL
